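Grown in 96-well plates, cells were treated for 48 hours with each compound at five concentrations. Insufficient inhibition: endpoint recorded as highest concentration tested. Here, GI50 denotes the concentration required for 50% inhibition of growth. TGI denotes the concentration required for complete inhibition of growth.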 Where a SMILES comes first, the peptide text is derived from it. The star is where a group is joined. Boc = CC(C)(C)OC(=O)*
What was measured:
Assay in all cases: growth of human tumour cells (NCI), 48 h
[1] = tested on: MCF7 breast
[2] = tested on: IGROV1 ovarian
[3] = tested on: 786-0 renal
[4] = tested on: HS 578T breast
[5] = tested on: OVCAR-3 ovarian
[6] = tested on: HOP-92 NSCLC
[7] = tested on: SW-620 colon
[8] = tested on: UACC-257 melanoma
[9] = tested on: UACC-62 melanoma
[10] = tested on: MALME-3M melanoma
[11] = tested on: MDA-N

Structure (SMILES)	TGI [1] [µM]	TGI [2] [µM]	TGI [3] [µM]	TGI [4] [µM]	TGI [5] [µM]	TGI [6] [µM]	TGI [7] [µM]	TGI [8] [µM]	TGI [9] [µM]	TGI [10] [µM]	TGI [11] [µM]	GI50 [6] [µM]
O=C1/C(=C/c2ccccc2)N=C(c2ccccc2)N1n1c(-c2ccccc2)nc2ccccc2c1=O	> 100	> 100	> 100	> 100	> 100	> 100	> 100	> 100	> 100	> 100	> 100	–
S=C(N/N=C\C=N/NC(=S)N1CCCCC1)N1CCCCC1	> 100	> 52.7	> 31.6	> 51.9	78.2	45.8	> 100	> 100	> 100	> 35	> 100	–
CC1(O)CC(C(F)(F)F)(C(F)(F)F)OC1=O (configuration not stated)	> 10	> 10	> 10	> 10	> 10	> 10	> 10	> 10	> 10	> 10	> 10	–
COc1cc(O)c(/C=N/N=C(\N)NO)c(OC)c1	> 10	> 10	> 10	> 10	> 10	> 10	> 10	> 10	> 10	> 10	> 10	–
COc1ccc(C2CC(c3c(O)ccc4ccccc34)=NN2c2ccc([N+](=O)[O-])cc2[N+](=O)[O-])cc1OC (configuration not stated)	> 91.7	> 71.2	> 100	> 89.7	58.3	58.7	> 100	> 93.9	> 100	56.4	> 100	–
COc1ccc(-c2cc(-c3ccco3)c(C#N)c(=S)n2C2OC(COC(C)=O)C(OC(C)=O)C(OC(C)=O)C2OC(C)=O)cc1 (configuration not stated)	> 100	29.5	10.6	21.1	19.7	13	93.2	–	14.4	16.9	19.2	–
CC(C)(C)C1=C(Br)C(Br)(C(C)(C)C)OP1(=O)c1ccccc1 (configuration not stated)	> 100	> 100	> 100	> 100	> 100	> 100	> 100	> 100	> 100	> 100	> 100	–
O=C(CC(=O)n1nc(-c2ccccc2)c(N=Nc2ccccc2C(=O)O)c1-c1ccccc1)Nc1ccc(Cl)cc1	> 100	> 100	> 100	> 100	–	42.2	> 100	> 100	> 100	> 100	> 100	–
OCC1CCCCCCCCCCC12SCCCS2 (configuration not stated)	> 100	> 100	> 100	> 100	> 100	> 100	> 100	–	> 100	> 100	> 100	–
CCOP(=O)(OCC)/C(C#N)=C/c1cnc(-c2ccccc2)[nH]1	> 100	> 100	> 100	> 100	> 100	> 100	> 100	> 100	> 100	> 100	> 100	–
COc1cc2c(cc1OC)C1=Cc3cc(OC)c(OC)cc3C(C)N1C=C2 (configuration not stated)	> 100	> 100	> 100	> 100	> 100	> 100	> 100	> 100	> 100	> 100	> 100	–
COc1ccccc1Nc1nc(N)nc(N)c1N=O	> 100	> 100	> 100	> 100	–	> 100	> 100	> 100	> 100	> 100	> 100	–
OC1C2[C@@H](O)CCCN2C[C@@H](O)[C@H]1O (some centres not stated)	> 100	> 100	> 100	> 100	> 100	> 100	> 100	> 100	> 100	> 100	> 100	–
O=C(O)c1c2c(cc3c1CC1(Cc4ccccc4C1)C3)CCC2	> 100	> 100	> 100	> 100	> 100	52.5	> 100	> 100	> 100	> 100	> 100	–
CC[C@]1(Cc2ccc(OC)c(OC)c2)CN(S(=O)(=O)c2ccc(C)cc2)C[C@@H]1OC(C)=O	> 100	> 100	> 100	> 100	> 100	> 100	> 100	> 100	> 100	> 100	> 100	–
COC(=O)CNC(=O)C(Cc1ccccc1)NC(=O)C(CCSC)NC(=O)C(Cc1ccc(O)cc1)NC(=O)OC(C)(C)C (configuration not stated) (Boc-YMFG-OMe; configuration not given here)	> 100	> 100	> 100	> 100	38.9	74.1	> 100	38.2	> 100	> 100	> 100	–
O=C1C(Cl)=C(N2CCN(C3=C(Cl)C(=O)c4ccccc4C3=O)CC2)C(=O)c2ccccc21	3.34	4.11	3.26	7.12	3.02	2.4	2.68	2.78	3.29	3.32	3.29	–
O=C(NNC(=S)Nc1ccc(Cl)cc1)c1cc(-c2ccccc2)nc2ccccc12	17.3	26.7	17.6	32.4	8.91	13.6	18.4	19.5	12.6	17.5	6.5	–
Nc1ccc2nc(-c3ccccn3)c(-c3ccccn3)nc2c1	> 100	> 100	> 100	> 100	> 100	> 100	> 100	> 100	> 100	> 100	> 100	–
Cc1c(F)c(N)c2c(=O)cc(-c3ccc(NC(=O)CN(C)C)c(F)c3)oc2c1F	> 66.1	> 100	> 100	> 100	> 60.9	99.4	> 74.6	> 100	> 94.2	> 100	> 100	> 36.4

— PubChem BioAssay (NCI)
